Some test systems named below: SK-MEL-28; MDA-MB-435; A498; 786-0; UACC-62; CCRF-CEM; ACHN; Malme-3M; NCI-H460; HT-29; RXF 393; MCF7; SK-OV-3; SR; PC-3; U-251; HCT-15; SF-295; OVCAR-3; A549.
Common to all, as to assay: NCI tumour cell line growth inhibition, 48 h

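All cell lines were grown in 96-well plates and treated with compound for 48 hours. Here, GI50 denotes the concentration required for 50% inhibition of growth.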 Activity calls are given as the source filed them. Rule as the data show it: active = GI50 up to about 1.1 µM and inactive = higher. Bounds are passed on as bounds.

The text below walks through data of ChEMBL document CHEMBL1201862, “PubChem BioAssay data set” (2004).

Regarding `O=C1/C(=C\c2cccc(Oc3ccccc3)c2)S(=O)(=O)C(c2ccccc2)N1c1cccc(Cl)c1` (stereo not given), the GI50 with SK-MEL-28 was > 100 µM (inactive); with MDA-MB-435, 38.5 µM (inactive); in the experiment with A498 it was > 100 µM (inactive); in the experiment on 786-0, 46.5 µM (inactive); with UACC-62 it was 57.7 µM (inactive); in the experiment with CCRF-CEM, 11.1 µM (inactive). The GI50 with ACHN was 71.8 µM (inactive); with Malme-3M, > 100 µM (inactive); in the experiment with NCI-H460, 88.3 µM (inactive); in the experiment with HT-29, 30.1 µM (inactive); with RXF 393 it was 36.3 µM (inactive); in the experiment on MCF7, 30.2 µM (inactive). The GI50 is 66.4 µM (inactive) in the experiment on SK-OV-3; 20.9 µM (inactive) in the experiment on SR; > 100 µM (inactive) with PC-3; 50.4 µM (inactive) in the experiment on U-251; 40.6 µM with HCT-15; 39.4 µM (inactive) in the experiment with SF-295. The GI50 with OVCAR-3 was 36.2 µM (inactive); with A549, > 100 µM (inactive).

As to `C[N+](C)(C)CC(=O)N/N=C/c1ccncc1`, the GI50 in the experiment with SK-MEL-28, in the experiment with MDA-MB-435, in the experiment with A498, in the experiment with 786-0, in the experiment on UACC-62 and with CCRF-CEM was > 100 µM (inactive) throughout. Besides, the GI50 in the experiment on ACHN, in the experiment on Malme-3M, in the experiment on NCI-H460, with HT-29, in the experiment with RXF 393 and in the experiment on MCF7 was > 100 µM (inactive) each time. Also, the GI50 in the experiment on SK-OV-3 was > 100 µM (inactive); in the experiment with SR, > 100 µM (inactive); in the experiment with PC-3, > 100 µM (inactive); in the experiment on U-251 it was > 100 µM (inactive); in the experiment on HCT-15, above 100 µM; with SF-295 it was > 100 µM (inactive). Moreover, the GI50 in the experiment with OVCAR-3 and in the experiment with A549 was > 100 µM (inactive) in each case.

Take `COC12C=CC(CC1)C(C)(C)C2OS(C)(=O)=O` (stereo not given): the GI50 with SK-MEL-28 is > 100 µM (inactive); in the experiment on MDA-MB-435, > 100 µM (inactive); in the experiment on A498 it was 97.1 µM (inactive); in the experiment on 786-0, > 100 µM (inactive); in the experiment on UACC-62, > 100 µM (inactive); in the experiment with CCRF-CEM, > 100 µM (inactive). The GI50 with ACHN, in the experiment on Malme-3M, with NCI-H460, in the experiment on HT-29, in the experiment on RXF 393 and with MCF7 was > 100 µM (inactive) each time. Further, the GI50 in the experiment on SK-OV-3 was > 100 µM (inactive); with SR it was > 100 µM (inactive); in the experiment with PC-3, > 100 µM (inactive); with U-251 it was > 100 µM (inactive); in the experiment on HCT-15, above 100 µM; with SF-295 it was > 100 µM (inactive). Moreover, the GI50 with OVCAR-3 and with A549 was > 100 µM (inactive) in each case.

As for `O=C(c1ccccc1)c1cc[n+](C2=C([N-]S(=O)(=O)c3ccccc3)C(=O)c3ccccc3C2=O)cc1`, the GI50 with SK-MEL-28 is 3.22 µM (inactive); in the experiment with MDA-MB-435, 1.72 µM (inactive); in the experiment on A498, 18.1 µM (inactive); with 786-0, 7.13 µM (inactive); in the experiment on UACC-62 it was 1.88 µM (inactive); in the experiment on CCRF-CEM, 2.1 µM (inactive). Further, the GI50 was 12.7 µM (inactive) with ACHN; 4.34 µM (inactive) with Malme-3M; 13.5 µM (inactive) with NCI-H460; 14.4 µM (inactive) in the experiment on HT-29; 12.4 µM (inactive) with RXF 393; 8.79 µM (inactive) in the experiment with MCF7. The GI50 in the experiment on SK-OV-3 was 15.4 µM (inactive); in the experiment with SR it was 3.08 µM (inactive); in the experiment on PC-3, 11.1 µM (inactive); with U-251, 4.38 µM (inactive); in the experiment with HCT-15 it was 14.4 µM; in the experiment with SF-295, 11.8 µM (inactive). Besides, the GI50 in the experiment with OVCAR-3 was 3.1 µM (inactive); in the experiment with A549, 14.5 µM (inactive).
